Consider one substance from US6084072A, “Purified lectin and methods of use” (The Regents of the University of Michigan, priority 1993, dated 2000).

Experiment [1] relates to human red blood cells (A, B, and O). The experiment in a line: Hemagglutination. Type of experiment: cell-based. The method, then: In the hemagglutination procedure, red blood cells were washed and resuspended to make a 2% suspension in phosphate buffered saline. The lectin solution was serially diluted in microliter plates followed by the addition of the 2% red blood cell suspension. Hemagglutination was observed after 1 hour at room temperature. One hemagglutination unit (HU) is defined as the minimum amount of amaranthin to completely agglutinate cells and is equivalent to a lectin concentration of 2 μg/ml.

The subject of experiment [2] is asialo-ovine submaxillary mucin. Description: pH dependence of amaranthin/asialo-ovine submaxillary mucin precipitation. Type of experiment: binding. To be noted: 80 μg amaranthin, 5 μg asialo-ovine submaxillary mucin, universal buffer. Here is the method: The pH dependence study utilized a 2-fold concentrate of a universal buffer system consisting of sodium citrate (24.6 mM), KH2 PO4 (28.7 mM) sodium barbitol (29.1 mM), boric acid (28.8 mM), and NaCl (209 mM), and was adjusted to the indicated pH values with 0.2 N NaOH or 0.2 N HCl. Water was added to complete the 2-fold dilution and the pH was recorded. Amaranthin and asialo-ovine submaxillary mucin solutions were prepared as concentrated solutions in 0.9% NaCI. A standard precipitation assay with amaranthin (80μg) and asialo-ovine submaxillary mucin (5 μg) was carried out using the universal buffer at the indicated pH.

Experiment [3] relates to normal colonic epithelium. Type of experiment: binding, human. The arrangement: key to Labeling of normal colon in the tissue survey / Staining (global score 0-3+): 4^+: Maximum labeling of the brown reaction product; 0: No staining of the slide compared to control sections; 1^+: trace or weak staining definitely not seen on control slides; 2+3^+: stronger staining, but definitely less than maximal.

Another experiment deals with colonic adenocarcinoma. The format is binding, human. The arrangement: key to Labeling of transitional mucosa: 4^+: Maximum labeling of the brown reaction product; 0: No staining of the slide compared to control sections; 1^+: trace or weak staining definitely not seen on control slides; 2+3^+: stronger staining, but definitely less than maximal.
Experiment [4] deals with adenomatous colonic polyps. The experiment in a line: Lectin histochemistry, adenomatous colonic polyps. Type of experiment: binding, human. To be noted: glands in adenomatous polyps; mean ± SEM; listed as ACA. The source says: Specimens of adenocarcinoma of the colon and adenomatious colonic polyps from resected specimens were obtained from the Pathology Service at the Ann Arbor Veterans Administration Medical Center. These specimens were obtained at surgery or at colonoscopic polypectomy, fixed in buffered formalin, and embedded in paraffin for routine pathological examination. Additional four micron sections were cut for lectin histochemistry after the pathological diagnosis was confirmed.
Four micron paraffin embedded tissue sections attached to glass slides were deparaffinized by serial incubations in xylene (twice), absolute ethanol (thrice), 95% ethanol, 70% ethanol, water and finally equilibrated in phosphate buffered saline (PBS), pH 7.0, containing 0.1% bovine serum albumin (BSA) commercially available from Sigma Corp of St. Louis, Mo. The slides were blotted dry adjacent to the tissue sections, and biotinylated lectin was added at a concentration of 10 μg/ml (for ACA) and 20 μg/ml (for PNA) in a quantity sufficient to completely cover the hydrated tissue (100-2001 μl). The lectin was rinsed off after a 30 minute incubation by eight 2-second dips into phosphate buffered saline. The slides were again blotted, and the tissue covered with Streptavidin-horseradish peroxidase (HRP) obtained from Zymed Laboratories, San Francisco, Calif. at a concentration of 10 μg/ml for 30 minutes. […]

A further experiment has as its system FAP colonic tissue. Description: Lectin histochemistry, familial adenomatous polyposis (FAP) colonic tissue. The format is binding, human. From the text:
Full thickness specimens of colonic tissue were obtained from colectomy specimens for familial adenomatous polyposis at Johns Hopkins Hospital, fixed in formalin, and embedded in paraffin for tissue sectioning. The tissue specimens contained normal-appearing flat mucosa familial adenomatous polyposis, or FAP-normal, as well as a polypoid, adenomatious tissue familial adenomatous polyposis, or FAP-abnormal.
Four micron paraffin embedded tissue sections attached to glass slides were deparaffinized by serial incubations in xylene (twice), absolute ethanol (thrice), 95% ethanol, 70% ethanol, water and finally equilibrated in phosphate buffered saline (PBS), pH 7.0, containing 0.1% bovine serum albumin (BSA) commercially available from Sigma Corp of St. Louis, Mo. The slides were blotted dry adjacent to the tissue sections, and biotinylated lectin was added at a concentration of 10 μg/ml (for ACA) and 20 μg/ml (for PNA) in a quantity sufficient to completely cover the hydrated tissue (100-2001 μl). The lectin was rinsed off after a 30 minute incubation by eight 2-second dips into phosphate buffered saline. The slides were again blotted, and the tissue covered with Streptavidin-horseradish peroxidase (HRP) obtained from Zymed Laboratories, San Francisco, Calif. at a concentration of 10 μg/ml for 30 minutes. The slides were rinsed as mentioned above, and the pigmented reaction product developed by the addition of a freshly prepared chromogen reagent solution prepared within two hours of use as follows.
3,3'-diaminobenzidine was aliqotted at 5 mg/mL in 0.01 M (Tris) tris hydroxy methyl amino methane saline, pH 7.5 and frozen at -70° C. until use. For use, the aliquot was thawed, diluted 1:10 in 0.01 M (Tris) tris hydroxy methyl amino methane saline pH 7.5, and 3.3 μL of 30% H2 O2 were added to each 5 ml. This solution was allowed to stand for 10 min, and 100-200 μl was applied to the tissue sections that had been incubated earlier with biotinylated lectin and Streptavidin-HRP. After 10 min, the slides were rinsed with albumin-free phosphate buffered saline. […]
A second method for scoring tissues was used to survey normal colonic tissues, adenomatous polyps, and cancers. For these studies, individual epithelial "units" were counted as either positive or negative; i.e., each crypt of Lieberkuhn or neoplastic gland was considered an independent scorable unit, and the tissue score was expressed in terms of the percentage of units with any degree of definite labeling as from 1^+ to 4^+. […]
Therefore, each individual crypt of Lieberkuhn was given a score from 0-4^+, and the labeling was expressed as a "weighted average", or, the sum of scores from 100 crypts, which could range from 0 (all crypts not labeled) to 400 (all 100 crypts maximally labeled). […]

The subject of experiment [5] is mucin purified from the LS174T xenograft. The experiment in a line: Solid phase enzyme-linked lectin-binding assay. The method, then:
A solid phase enzyme-linked lectin-binding assay has been developed for ACA to quantitate lectin binding to solubilized glycoconjugates. ACA is more sensitive in the measurement of purified cancer-associated mucin than peanut lectin, and can detect as little as 1 mg of mucin purified from the LS174T xenograft.

A further experiment concerns hog lymphocytes. To be noted: cited from earlier work.

“And” between values parts separate entries of the source, which are not always exact repeats. Equal entries are not always repeated. Where two headings read alike, the source gives them in different places.

On to amaranthin, for which the “agglutination of A, B, O red blood cells, in words” value in experiment [1] is “does and No difference was observed”. The “minimum amount to completely agglutinate cells (one HU)” value in experiment [1] (2% red blood cell suspension, 1 hour at room temperature) was determined as 2 µg/mL. Moreover, in experiment [2], the “pH at or below which almost no precipitate formed” value is ≤ 3 pH. The “pH of peak precipitation activity” value in experiment [2] worked out at 5 pH. For the same substance, the “pH range of significant amaranthin activity” value in experiment [2] is given as 4-9 pH. In addition, the “Labeling of normal colon in the tissue survey” value in experiment [3] is reported as 1^+. Besides, the “Staining (global score 0-3+)” value in experiment [3] (biotinylated ACA 10 μg/mL or PNA 20 μg/mL) is 1^+. The “Percent of Epithelial Units Labeled” value in experiment [3] (lower half of crypt, mean ± SEM, listed as ACA) was 46±4% and 46%±4%; in experiment [3] (upper half of crypt, mean ± SEM, listed as ACA) it was 7±2% and 7%±2%; in the experiment with colonic adenocarcinoma (malignant glands, mean ± SEM, listed as ACA), 97±2% and 97%±2%; in experiment [4] it was 82±7% and 82%±7% and 82 + 7%; in the experiment on FAP colonic tissue (flat tissue, mean ± SEM, listed as ACA), 60±7% and 60%±7%; in the experiment with FAP colonic tissue (polypoid tissue, mean ± SEM, listed as ACA), 83±7% and 83%±7%. For the same substance, the “Weighted Average (0-400)” value in experiment [3] (sum of scores of 100 epithelial units, mean ± SEM, listed as ACA) worked out at 65±33; in the experiment on FAP colonic tissue (FAP, mean ± SEM, listed as ACA) it was 224±76. The “Effect of Newcastle disease virus neuraminidase on labeling” value in the experiment on colonic adenocarcinoma (cancer specimens) is listed as “Neither sialidase enhanced labeling”. Further, the “Effect of V. Cholerae neuraminidase on labeling” value with colonic adenocarcinoma (cancer specimens) is “Neither sialidase enhanced labeling”. Besides, the “Labeling of transitional mucosa” value in the experiment on colonic adenocarcinoma (mucosa adjacent to colonic cancer, upper and lower crypt region) is listed as 1^+. Further, the “Percent of epithelial glands with bound lectin” value in the experiment with FAP colonic tissue (all 28 specimens, mean) turned out to be 67±6%. The “smallest amount of mucin detected” value in experiment [5] came out at 1 mg. Moreover, the “mitogenicity, in words” value with hog lymphocytes was “non-mitogenic”.
